Test results as given in article PMC10140166 (The Journal of Biological Chemistry, 2023).
“And” between values parts separate entries of the source, which are not always exact repeats. Equal values may be shown once.

Experiments:
PRV [1] = assay type: cell-based, pseudorabies virus
HSV-1 = conditions: read-out: IC50 against HSV-1; cited from earlier work
PRV [2] = assay: microbe, parasite or virus in culture; assay type: cell-based, pseudorabies virus; conditions: for IC50: Suid alphaherpesvirus 1, HeLa, 24 h
in vitro = conditions: human
HCMV = conditions: read-out: IC50 against HCMV; cited from earlier work
HSV-2 = conditions: read-out: IC50 against HSV-2; cited from earlier work
enterovirus 71 = conditions: read-out: IC50 against enterovirus 71; cited from earlier work

Q: For `CCn1c2ccccc2c2cc(Nc3ccnc(NCCCN4CCOCC4)n3)ccc21` [EHop-016], which “cytotoxicity / cell viability at the concentration used” value (shortened to “cytotoxicity / cell viability”) (DF-1 cells) is on record?
A: without cytotoxicity

Q: And the “viral protein load (Western blot)” value (PRV [1])?
A: reduced the viral protein load

Q: For Mazamine A, which IC50 (HSV-1) is on record?
A: 1 µM

Q: Which IC50 (HSV-1) does the source give for manzamine A monotartrate here?
A: 0.1 µM

Q: What does the source list for ML-141?
A: cytotoxicity / cell viability at the concentration used (DF-1 cells): without cytotoxicity; viral protein load (Western blot) (PRV [1]): reduced the viral protein load

Q: Which “cytotoxicity / cell viability” value (DF-1 cells) does the source give for `CCN(c1nc(N)c(C(=O)N=C(N)N)nc1Cl)C(C)C` [EIPA, 5-[N-ethyl-N-isopropyl] amiloride] here?
A: without cytotoxicity

Q: What about the “viral protein load (US9 relative to β-actin, densitometry)” value (PRV [1]) of the same molecule?
A: 0.21 ± 0.01

Q: Which “inhibitory rate (reduction vs DMSO-treated cells), primary screening” value (PRV [2]) does the source give for `COc1ccc2c(c1)[nH]c1c(C)nccc12` [Compound 2, harmine] here?
A: > 90%

Q: And the “reduction of production of infectious virus particles vs DMSO” value (PRV [2])?
A: 2.3 Log

Q: What about the IC50 (PRV [2]) of the same molecule?
A: 1.19 ± 0.09 µM

Q: And the IC50 (HSV-1)?
A: 4.56 µM

Q: And the CC50 (in vitro)?
A: > 30 µM

Q: What about the “cytotoxicity / cell viability” value (DF-1 cells) of the same molecule?
A: without cytotoxicity

Q: And the IC50 (HCMV)?
A: 0.71 ± 0.019 µM

Q: And the IC50 (HSV-2)?
A: 1.47 µM

Q: What about the IC50 (enterovirus 71) of the same molecule?
A: 10 ± 2.5 µM

Q: With `Nc1nc2c(ncn2COCCO)c(=O)[nH]1` [Acyclovir] as the molecule, how does the “reduction (positive control), primary screening” value (PRV [2]) read?
A: 98%

Q: What about the IC50 (PRV [2]) of the same molecule?
A: 2.81 ± 0.3 µM

Q: For manzamine A monohydrochloride, which IC50 (HSV-1) is on record?
A: 0.1 µM

Q: For `Oc1cccc2c1[nH]c1c(C3=C[C@@]4(O)CC/C=C\CCCCN5CC[C@@H]3[C@]3(C[C@@H]6/C=C\CCCCN6[C@H]34)C5)nccc12` [8-hydroxymanzamine A], which IC50 (HSV-1) is on record?
A: 3.7 µM

Q: What does the source list for `COc1ccc2c3ccnc(C)c3n(C)c2c1` [Compound 3, 9-methyl-harmine]?
A: inhibitory rate (reduction vs DMSO-treated cells), primary screening (PRV [2]): > 90% and > 99%; IC50 (PRV [2]): 0.52 ± 0.04 µM; CC50 (in vitro): > 30 µM

Q: With `COc1cc(N2CCN(C)CC2)ccc1Nc1nccc(-c2cn(C)c3cnccc23)n1` [AZ191] as the molecule, how does the “reduction of production of infectious virus particles vs DMSO” value (PRV [2]) read?
A: 1.1 Log

Q: What about the “cytotoxicity / cell viability” value (DF-1 cells) of the same molecule?
A: did not affect cell viability
